Data reported in the NIST ThermoML archive (doi:10.1016/j.jct.2010.11.014).
± gives the expanded uncertainty stated by the source.

How the values were obtained:
[1] = excess molar enthalpy (molar enthalpy of mixing); xn = mol fraction of the nth substance listed; conditions: 298.15 K, 101.3 kPa, Liquid, Adiabatic Solution Calorimetry
[2] = molar heat capacity at constant pressure; xn = mol fraction of the nth substance listed; conditions: 101.3 kPa, Liquid, Adiabatic Solution Calorimetry

CCn1cc[n+](C)c1.COP(=O)([O-])OC [1-ethyl-3-methylimidazolium dimethylphosphate] + CCO
[1]
Conditions	excess molar enthalpy [kcal/mol]
x1 = 0.15	-0.428 ± 0.0206
x1 = 0.31	-0.656 ± 0.0206
x1 = 0.47	-0.57 ± 0.0206
x1 = 0.59	-0.522 ± 0.0206
x1 = 0.8	-0.286 ± 0.0203

molar heat capacity at constant pressure [J/K/mol], [2]
Conditions	x1 = 0.2	x1 = 0.4	x1 = 0.6	x1 = 0.8	x1 = 1
298.15 K	153.21 ± 38	220.84 ± 55	272.51 ± 72	324.35 ± 90	329.37 ± 110
303.15 K	171.31 ± 38	235.29 ± 55	289.67 ± 72	348.58 ± 90	346.23 ± 110
313.15 K	205.63 ± 38	282.28 ± 55	340.78 ± 72	404 ± 90	381.64 ± 110
323.15 K	258.83 ± 38	335.32 ± 55	398.34 ± 72	448.05 ± 90	411.74 ± 110

CCn1cc[n+](C)c1.COP(=O)([O-])OC [1-ethyl-3-methylimidazolium dimethylphosphate] + CO
[1]
Conditions	excess molar enthalpy [kcal/mol]
x1 = 0.1	-0.376 ± 0.043
x1 = 0.3	-0.803 ± 0.043
x1 = 0.5	-0.801 ± 0.043
x1 = 0.65	-0.62 ± 0.043
x1 = 0.79	-0.435 ± 0.043

molar heat capacity at constant pressure [J/K/mol], [2]
Conditions	x1 = 0.2	x1 = 0.41	x1 = 0.59	x1 = 0.77	x1 = 1
298.15 K	147.03 ± 28	213.84 ± 44	269.26 ± 59	297.59 ± 73	329.37 ± 91
303.15 K	163.64 ± 28	229.84 ± 44	289.07 ± 59	306.37 ± 73	346.23 ± 91
313.15 K	215.28 ± 28	271.99 ± 44	337.82 ± 59	334.16 ± 73	381.64 ± 91
323.15 K	252.08 ± 28	312.33 ± 44	370.93 ± 59	371.12 ± 73	411.74 ± 91

CCn1cc[n+](C)c1.COP(=O)([O-])OC [1-ethyl-3-methylimidazolium dimethylphosphate] + O
[1]
Conditions	excess molar enthalpy [kcal/mol]
x1 = 0.18	-1.26 ± 0.0287
x1 = 0.31	-1.51 ± 0.0287
x1 = 0.45	-1.44 ± 0.0287
x1 = 0.64	-1.15 ± 0.0287
x1 = 0.82	-0.604 ± 0.0287

molar heat capacity at constant pressure [J/K/mol], [2]
Conditions	x1 = 0.18	x1 = 0.4	x1 = 0.6	x1 = 0.8	x1 = 1
298.15 K	119.02 ± 17	167.14 ± 31	224.66 ± 43	279.14 ± 56	329.37 ± 69
303.15 K	125.02 ± 17	176.74 ± 31	242.41 ± 43	288.72 ± 56	346.23 ± 69
313.15 K	134.91 ± 17	203.5 ± 31	276.49 ± 43	323.78 ± 56	381.64 ± 69
323.15 K	148.41 ± 17	228.82 ± 31	304.05 ± 43	352.68 ± 56	411.74 ± 69
